Results published in patent US20180194762A1 (Pharmacyclics LLC, priority 2017, published 2018).
pIC50: −log10 of the molar value. Values belong to the molecule of their own block, whether it stands above or below them.

How the values were obtained:
Type in all cases: biochemical
Btk = molecular target: T1, Btk (Homo sapiens, UniProt Q06187); assay: Btk in vitro inhibitory activity (one of Method A TR-FRET, Method B electrophoretic mobility shift, Method C radiometric filter binding); conditions: wild-type Btk; read-out: Btk-WT IC50
T1 construct: purified from insect cells as a full-length construct containing a N-terminal 6X-His tag; His6 (N); made in house; host or cells: insect cells (Method C)
T1 sequence (Q06187 whole entry): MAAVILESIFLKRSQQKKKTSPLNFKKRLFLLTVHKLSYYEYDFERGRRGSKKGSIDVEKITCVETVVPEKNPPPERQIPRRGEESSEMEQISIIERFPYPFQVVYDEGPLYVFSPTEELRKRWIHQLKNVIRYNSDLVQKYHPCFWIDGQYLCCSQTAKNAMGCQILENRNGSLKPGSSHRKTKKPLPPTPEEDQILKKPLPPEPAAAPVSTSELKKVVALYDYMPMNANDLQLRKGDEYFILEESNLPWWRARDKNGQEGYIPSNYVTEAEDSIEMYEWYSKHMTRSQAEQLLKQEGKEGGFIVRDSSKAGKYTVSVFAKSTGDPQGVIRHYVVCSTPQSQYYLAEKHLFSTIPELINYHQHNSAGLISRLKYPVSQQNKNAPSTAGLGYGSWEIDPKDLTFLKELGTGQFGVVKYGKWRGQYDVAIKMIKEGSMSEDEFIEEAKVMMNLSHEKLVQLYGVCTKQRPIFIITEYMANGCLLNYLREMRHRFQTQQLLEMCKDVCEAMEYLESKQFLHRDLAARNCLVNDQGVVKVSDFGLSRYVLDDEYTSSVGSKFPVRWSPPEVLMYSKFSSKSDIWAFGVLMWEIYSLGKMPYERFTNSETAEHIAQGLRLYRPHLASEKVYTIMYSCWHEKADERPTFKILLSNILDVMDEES
Summary of the method: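 Three alternative formats were used. A radiometric filter-binding read used 8 nM full-length His-BTK with 0.2 mg/mL poly(Glu-Tyr) 4:1 (C); microfluidic separation of 1 μM FAM-peptide by 1 nM BTK gave IC50 from 12-point curves (B); TR-FRET at Km ATP, 0.5 nM Btk, gave Ki(app)-derived IC50 (A).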

TEC = molecular target: T2, TEC (Homo sapiens, UniProt P42680); assay: Inhibition of a panel of kinases (in vitro HotSpot kinase assay, 33P-ATP, 1 μM ATP); conditions: HotSpot kinase assay, 1 μM ATP
T2 sequence (P42680 1-631): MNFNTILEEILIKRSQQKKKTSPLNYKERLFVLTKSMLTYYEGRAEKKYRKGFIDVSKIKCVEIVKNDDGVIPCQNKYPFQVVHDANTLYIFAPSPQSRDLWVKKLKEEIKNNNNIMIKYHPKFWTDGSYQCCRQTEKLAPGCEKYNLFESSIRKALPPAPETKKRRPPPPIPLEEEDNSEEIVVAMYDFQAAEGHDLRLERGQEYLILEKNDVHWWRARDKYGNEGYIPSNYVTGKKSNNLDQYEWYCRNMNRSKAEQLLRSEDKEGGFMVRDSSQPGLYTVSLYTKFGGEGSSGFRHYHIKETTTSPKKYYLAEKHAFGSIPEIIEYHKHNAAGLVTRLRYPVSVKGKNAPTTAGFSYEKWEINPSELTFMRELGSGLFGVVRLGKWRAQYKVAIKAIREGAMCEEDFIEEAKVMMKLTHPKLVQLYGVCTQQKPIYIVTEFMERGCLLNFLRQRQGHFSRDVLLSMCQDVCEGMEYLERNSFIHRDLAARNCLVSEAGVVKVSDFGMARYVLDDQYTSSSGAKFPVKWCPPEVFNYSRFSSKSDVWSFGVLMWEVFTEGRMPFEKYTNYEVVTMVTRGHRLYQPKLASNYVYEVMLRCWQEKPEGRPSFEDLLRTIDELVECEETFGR
Summary of the method: (§1)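 Radiometric read-out: 33P transfer to a suitable substrate by each purified enzyme, ATP at 1 μM. Values are degree of inhibition.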

panel of kinases = molecular target: T3, panel of kinases (Homo sapiens, UniProt P51813); assay: Inhibition of a panel of kinases (in vitro HotSpot kinase assay, 33P-ATP, 1 μM ATP), other kinases; conditions: BMX wild-type, read-out: BMX-WT IC50
T3 sequence (P51813 1-675): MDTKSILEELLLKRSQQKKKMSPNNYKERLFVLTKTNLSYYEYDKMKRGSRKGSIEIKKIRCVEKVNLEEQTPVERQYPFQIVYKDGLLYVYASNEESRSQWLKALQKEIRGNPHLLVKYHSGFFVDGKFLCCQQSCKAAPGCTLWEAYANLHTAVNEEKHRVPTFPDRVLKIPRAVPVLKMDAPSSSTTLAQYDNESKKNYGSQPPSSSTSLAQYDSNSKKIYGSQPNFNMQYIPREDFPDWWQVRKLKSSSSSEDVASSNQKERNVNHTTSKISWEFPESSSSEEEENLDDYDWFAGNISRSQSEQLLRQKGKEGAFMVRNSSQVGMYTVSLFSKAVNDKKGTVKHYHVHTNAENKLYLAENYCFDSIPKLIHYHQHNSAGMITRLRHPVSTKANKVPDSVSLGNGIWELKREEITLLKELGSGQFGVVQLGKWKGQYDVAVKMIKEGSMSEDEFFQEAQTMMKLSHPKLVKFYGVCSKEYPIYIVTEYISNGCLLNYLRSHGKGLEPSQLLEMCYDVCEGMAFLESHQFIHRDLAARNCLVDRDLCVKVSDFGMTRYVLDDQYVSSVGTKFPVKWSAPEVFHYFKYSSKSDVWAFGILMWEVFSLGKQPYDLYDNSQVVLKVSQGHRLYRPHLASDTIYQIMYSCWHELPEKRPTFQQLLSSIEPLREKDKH
Summary of the method: as §1

Compound: C=CC(=O)N1CC[C@@H](Nc2n[nH]c3nccc(-c4ccc(CNC(=O)c5ccc6ocnc6c5)c(F)c4)c23)C1 [Example 379, (R)-N-{[2-fluoro-4-(3-{[1-(prop-2-enoyl)pyrrolidin-3-yl]amino}-1H-pyrazolo[3,4-b]pyridin-4-yl)phenyl]methyl}-1,3-benzoxazole-5-carboxamide]
pIC50 (Btk): 7.19 | pIC50 (TEC): 6.13 | pIC50 (panel of kinases): 6.85

Compound: C[C@@H](NC(=O)c1nc(C(C)(C)C)no1)c1ccc(-c2ccnc3[nH]nc(N4CCCCC4)c23)cc1 [Example 384, 3-tert-butyl-N-[(1R)-1-{4-[3-(piperidin-1-yl)-1H-pyrazolo[3,4-b]pyridin-4-yl]phenyl}ethyl]-1,2,4-oxadiazole-5-carboxamide]
pIC50 (Btk): 9.18 | pIC50 (TEC): 5.52 | pIC50 (panel of kinases): 5.69

Compound: CC(C)c1noc(C(=O)N[C@H](C)c2ccc(-c3ccnc4[nH]nc(N5CCOCC5)c34)cc2)n1 [Example 389, N-[(1R)-1-{4-[3-(morpholin-4-yl)-1H-pyrazolo[3,4-b]pyridin-4-yl]phenyl}ethyl]-3-(propan-2-yl)-1,2,4-oxadiazole-5-carboxamide]
pIC50 (Btk): 8.39 | pIC50 (TEC): 6.04 | pIC50 (panel of kinases): 6.30

Compound: C[C@@H](NC(=O)c1nc(C(C)(C)C)no1)c1ccc(-c2ccnc3[nH]nc(N4CCC(NS(C)(=O)=O)CC4)c23)cc1 [Example 396, 3-tert-butyl-N-{(1R)-1-[4-(3-{4-[(methanesulfonyl)amino]piperidin-1-yl}-1H-pyrazolo[3,4-b]pyridin-4-yl)phenyl]ethyl}-1,2,4-oxadiazole-5-carboxamide]
pIC50 (Btk): 9.31 | pIC50 (TEC): 6.63 | pIC50 (panel of kinases): 5.92

Compound: C[C@@H](NC(=O)c1cc(C(C)(C)O)on1)c1ccc(-c2ccnc3[nH]nc(NC4CCCC4)c23)cc1 [Example 397, N-[(1R)-1-{4-[3-(cyclopentylamino)-1H-pyrazolo[3,4-b]pyridin-4-yl]phenyl}ethyl]-5-(2-hydroxypropan-2-yl)-1,2-oxazole-3-carboxamide]
pIC50 (Btk): 6.42 | pIC50 (TEC): 5.22 | pIC50 (panel of kinases): 5.47

Compound: C[C@@H](NC(=O)c1cc(C(C)(C)O)on1)c1ccc(-c2ccnc3[nH]nc(N4CCOCC4)c23)cc1 [Example 404, 5-(2-hydroxypropan-2-yl)-N-[(1R)-1-{4-[3-(morpholin-4-yl)-1H-pyrazolo[3,4-b]pyridin-4-yl]phenyl}ethyl]-1,2-oxazole-3-carboxamide]
pIC50 (Btk): 7.74 | pIC50 (TEC): 6.16 | pIC50 (panel of kinases): 6.30

Compound: CC(C)c1noc(C(=O)N[C@H](C)c2ccc(-c3ccnc4[nH]nc(N5CCS(=O)(=O)CC5)c34)cc2)n1 [Example 405, N-[(1R)-1-{4-[3-(1,1-dioxo-1λ^6-thiomorpholin-4-yl)-1H-pyrazolo[3,4-b]pyridin-4-yl]phenyl}ethyl]-3-(propan-2-yl)-1,2,4-oxadiazole-5-carboxamide]
pIC50 (Btk): 7.51 | pIC50 (TEC): 5.62 | pIC50 (panel of kinases): 5.48

Compound: C[C@@H](NC(=O)c1cc(C(C)(C)O)on1)c1ccc(-c2ccnc3[nH]nc(N4CCS(=O)(=O)CC4)c23)cc1 [Example 406, N-[(1R)-1-{4-[3-(1,1-dioxo-1λ^6-thiomorpholin-4-yl)-1H-pyrazolo[3,4-b]pyridin-4-yl]phenyl}ethyl]-5-(2-hydroxypropan-2-yl)-1,2-oxazole-3-carboxamide]
pIC50 (Btk): 7.03 | pIC50 (TEC): 5.32 | pIC50 (panel of kinases): 5.27

The next lines start with the values.

pIC50 (Btk): 6.47 | pIC50 (TEC): 6.18 | pIC50 (panel of kinases): 7.00
Compound: C=CC(=O)N1CC[C@@H](Nc2n[nH]c3nccc(-c4ccc(CNC(=O)c5ccc6oc(C)nc6c5)c(F)c4)c23)C1 [Example 380, (R)-N-{[2-fluoro-4-(3-{[1-(prop-2-enoyl)pyrrolidin-3-yl]amino}-1H-pyrazolo[3,4-b]pyridin-4-yl)phenyl]methyl}-2-methyl-1,3-benzoxazole-5-carboxamide]

pIC50 (Btk): 8.74 | pIC50 (TEC): 6.36 | pIC50 (panel of kinases): 6.36
Compound: C=CC(=O)N[C@@H]1CCN(c2n[nH]c3nccc(-c4ccc([C@@H](C)NC(=O)c5cc(C(C)(C)O)on5)cc4)c23)C1 [Example 382, 5-(2-hydroxypropan-2-yl)-N-{(1R)-1-[4-(3-{(3R)-3-[(prop-2-enoyl)amino]pyrrolidin-1-yl}-1H-pyrazolo[3,4-b]pyridin-4-yl)phenyl]ethyl}-1,2-oxazole-3-carboxamide]

pIC50 (Btk): 7.42 | pIC50 (TEC): 6.15 | pIC50 (panel of kinases): 6.79
Compound: C=CC(=O)N1CC[C@@H](Nc2n[nH]c3nccc(-c4ccc(CNC(=O)c5cn6c(C)cccc6n5)c(F)c4)c23)C1 [Example 390, N-{[2-fluoro-4-(3-{[(3R)-1-(prop-2-enoyl)pyrrolidin-3-yl]amino}-1H-pyrazolo[3,4-b]pyridin-4-yl)phenyl]methyl}-5-methylimidazo[1,2-a]pyridine-2-carboxamide]

pIC50 (Btk): 9.63 | pIC50 (TEC): 6.11 | pIC50 (panel of kinases): 5.87
Compound: C[C@H]1CC[C@@H](Nc2n[nH]c3nccc(-c4ccc(CNC(=O)c5nc(C(C)(C)C)no5)c(F)c4)c23)CN1C(=O)N(C)C [Example 391, (2S,5R)-5-{[4-(4-{[(3-tert-butyl-1,2,4-oxadiazole-5-carbonyl)amino]methyl}-3-fluorophenyl)-1H-pyrazolo[3,4-b]pyridin-3-yl]amino}-N,N,2-trimethylpiperidine-1-carboxamide]

pIC50 (Btk): 7.20 | pIC50 (TEC): 5.72 | pIC50 (panel of kinases): 6.18
Compound: CC(=O)N[C@@H]1CCN(c2n[nH]c3nccc(-c4ccc(CNC(=O)c5nc6ccccc6o5)c(F)c4)c23)C1 [Example 394, N-[(4-{3-[(3R)-3-acetamidopyrrolidin-1-yl]-1H-pyrazolo[3,4-b]pyridin-4-yl}-2-fluorophenyl)methyl]-1,3-benzoxazole-2-carboxamide]

pIC50 (Btk): 8.92 | pIC50 (TEC): 7.28 | pIC50 (panel of kinases): 7.52
Compound: C=CC(=O)N[C@@H]1CCN(c2n[nH]c3nccc(-c4ccc(CNC(=O)c5nc6ccccc6o5)c(F)c4)c23)C1 [Example 395, N-{[2-fluoro-4-(3-{(3R)-3-[(prop-2-enoyl)amino]pyrrolidin-1-yl}-1H-pyrazolo[3,4-b]pyridin-4-yl)phenyl]methyl}-1,3-benzoxazole-2-carboxamide]

pIC50 (Btk): 7.47 | pIC50 (TEC): 5.89 | pIC50 (panel of kinases): 6.05
Compound: CC(C)(C#N)c1cc(C(=O)NCc2ccc(-c3ccnc4[nH]nc(N5CC[C@@H](N)C5)c34)cc2F)no1 [Example 401, N-[(4-{3-[(3R)-3-aminopyrrolidin-1-yl]-1H-pyrazolo[3,4-b]pyridin-4-yl}-2-fluorophenyl)methyl]-5-(2-cyanopropan-2-yl)-1,2-oxazole-3-carboxamide]

pIC50 (Btk): 9.65 | pIC50 (TEC): 8.19 | pIC50 (panel of kinases): 7.77
Compound: C=CC(=O)N[C@@H]1CCN(c2n[nH]c3nccc(-c4ccc(CNC(=O)c5cc(C(C)(C)C#N)on5)c(F)c4)c23)C1 [Example 402, 5-(2-cyanopropan-2-yl)-N-{[2-fluoro-4-(3-{(3R)-3-[(prop-2-noyl)amino]pyrrolidin-1-yl}-1H-pyrazolo[3,4-b]pyridin-4-yl)phenyl]methyl}-1,2-oxazole-3-carboxamide]

pIC50 (Btk): 7.76 | pIC50 (TEC): 5.85 | pIC50 (panel of kinases): 5.74
Compound: CC(=O)N[C@@H]1CCN(c2n[nH]c3nccc(-c4ccc(CNC(=O)c5cc(C(C)(C)C#N)on5)c(F)c4)c23)C1 [Example 403, N-[(4-{3-[(3R)-3-acetamidopyrrolidin-1-yl]-1H-pyrazolo[3,4-b]pyridin-4-yl}-2-fluorophenyl)methyl]-5-(2-cyanopropan-2-yl)-1,2-oxazole-3-carboxamide]
